Assay results: article PMC11207571, “Applicability of MDR1 Overexpressing Abcb1KO-MDCKII Cell Lines for Investigating In Vitro Species Differences and Brain Penetration Prediction” (Pharmaceutics, 2024)

Experiments:
[1] = Bidirectional transport assay, efflux ratio in Abcb1KO-MDCKII-Mock control cells; conditions: dog, MDCK, pH 7.4
Procedure: (§1) Eluent A consisted of 0.1% formic acid in water, eluent B consisted of 0.1% formic acid in acetonitrile. Then, 10 µL samples were injected into the HPLC-MS/MS system. Mass spectrometric detection was performed in SRM mode, and ion transitions for each analyte were optimized during method development. Samples were analyzed in pools, with each pool containing three to four analytes.

[2] = biological target: T1, human MDR1 (Homo sapiens, UniProt P08183); test: Bidirectional transport assay, efflux ratio in Abcb1KO-MDCKII hMDR1 cells; conditions: human, MDCK-MDR1, pH 7.4
Procedure: as §1

[3] = biological target: T2, rat Mdr1a (Rattus norvegicus, UniProt Q6PSM0); test: Bidirectional transport assay, efflux ratio in Abcb1KO-MDCKII rMDR1 cells; conditions: rat, pH 7.4
Procedure: as §1

[4] = biological target: T3, mouse Mdr1a (Mus musculus, UniProt P21447); test: Bidirectional transport assay, efflux ratio in Abcb1KO-MDCKII mMDR1 cells; conditions: mouse, pH 7.4
Procedure: as §1

[5] = biological target: T4, cynomolgus monkey Mdr1 (Macaca fascicularis, UniProt Q8HZQ6); test: Bidirectional transport assay, efflux ratio in Abcb1KO-MDCKII cyMDR1 cells; conditions: cynomolgus monkey, pH 7.4
Procedure: as §1

[6] = biological target: T5, human BCRP (Homo sapiens, UniProt Q9UNQ0); test: Bidirectional transport assay, efflux ratio in MDCKII-BCRP cells; conditions: human, pH 7.4
T5 sequence (Q9UNQ0 1-655): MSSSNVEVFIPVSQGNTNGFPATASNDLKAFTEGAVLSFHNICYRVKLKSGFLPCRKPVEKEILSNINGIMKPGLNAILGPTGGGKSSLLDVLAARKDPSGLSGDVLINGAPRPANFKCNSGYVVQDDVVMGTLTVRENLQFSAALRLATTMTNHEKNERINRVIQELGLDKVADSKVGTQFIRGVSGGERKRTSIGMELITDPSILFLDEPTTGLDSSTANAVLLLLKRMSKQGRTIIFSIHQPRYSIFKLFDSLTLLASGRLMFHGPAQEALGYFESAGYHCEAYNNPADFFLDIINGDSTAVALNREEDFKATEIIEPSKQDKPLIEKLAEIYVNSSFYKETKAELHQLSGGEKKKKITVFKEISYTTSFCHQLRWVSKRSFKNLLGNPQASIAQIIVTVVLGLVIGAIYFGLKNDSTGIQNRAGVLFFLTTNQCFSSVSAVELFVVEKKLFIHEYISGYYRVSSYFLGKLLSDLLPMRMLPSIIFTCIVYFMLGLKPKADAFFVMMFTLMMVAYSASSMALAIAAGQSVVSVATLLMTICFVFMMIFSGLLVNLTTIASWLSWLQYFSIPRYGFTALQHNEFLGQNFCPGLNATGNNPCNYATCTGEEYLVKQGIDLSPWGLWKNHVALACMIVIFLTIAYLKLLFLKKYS
Procedure: as §1

[7] = test system: hMDR1 and hBCRP; test: Brain permeability classification from total ER of hMDR1 and hBCRP against in vivo rodent Kp,uu,brain; conditions: total ER cut-off 3; in vivo rodent Kp,uu,brain cut-off 0.3
Procedure: MDR1 and/or BCRP substrate properties were investigated by binary classification analysis on CNS+ and CNS− compounds. […] True negative (TN), where there was no efflux and the CNS+ compound crossed the BBB. […] The sensitivity and specificity of the estimation of brain penetration along with MDR1 and BCRP activity were calculated from predictive performance metrics.
First, NET ER was calculated and used for human predictions, (2) NET ER=ER(−inh)[…]ER(+inh) where ER(−inh) is ER in the absence of inhibitor, and ER(+inh) is ER in the presence of inhibitor, for hMDR1 (ERMDR1) or hBCRP (ERBCRP).
To identify the correlation between the in vivo rodent Kp,uu,brain and ERs, 58 compounds with known Kp,uu,brain were selected. An ER of 2 was used as a cut-off to classify MDR1 substrates and a Kp,uu,brain of 0.3 was used as a threshold for CNS penetrant compounds. The resulting graphs are thus divided into four quadrants. Brain penetration (Kp,uu,brain) was used as the logical value true condition, with compounds having Kp,uu,brain ≤ 0.3 considered positive. Q2 and Q3 comprise molecules with impaired brain penetration. […] Molecules in Q4 (true negatives, TN) can freely access the brain (Figure 2). Predictive performance metrics were calculated to show the efficacy of the established cell lines in BBB permeability classification (Table 1). Sensitivity refers to the ability of the model to correctly classify CNS-restricted molecules based on MDR1 substrate nature.
Subsequently, for a more reliable prediction of brain penetration, data generated in the hBCRP cell line were included in the analysis. hBCRP assay conditions and evaluations were identical to that of MDR1 cell lines, which allowed proper comparisons (Figure 2E,F). Total ER was calculated by combining ERs determined in BCRP and hMDR1 cell lines based on Equation (3), with an ER cut-off of 3. […] Eventually, total ERs were also assessed with the Relative Expression Factor (REF) (Equation (4); Figure 2E,F). REF is an in vitro and in vivo correlation scaler, calculated from transporter protein abundances in brain microvessels versus overexpressing cell lines.

[8] = biological target: T4, cynomolgus monkey Mdr1; test: cell-based
[9] = biological target: T1, human MDR1; test: Inhibition of 3H-digoxin or 3H-quinidine bidirectional transport in hMDR1 cells; conditions: IC50 from ER
[10] = biological target: T4, cynomolgus monkey Mdr1; test: Inhibition of 3H-digoxin or 3H-quinidine bidirectional transport in cyMDR1 cells; conditions: 60 min, IC50 from ER; for IC50: Inhibition of quinidine transport IC50±SD, cyMDR1, probe 3H-quinidine 0.1 µM
[11] = biological target: T2, rat Mdr1a; test: Inhibition of 3H-digoxin or 3H-quinidine bidirectional transport in rMDR1 cells; format: cell-based; set-up: rat Mdr1a (NM_133401.1); expressed in transfected cells; host or cells: Abcb1KO-MDCKII (canine kidney, endogenous Abcb1 knocked out), transduced, single-cell clone; conditions: IC50 from ER
[12] = biological target: T3, mouse Mdr1a; test: Inhibition of 3H-digoxin or 3H-quinidine bidirectional transport in mMDR1 cells; format: cell-based; set-up: mouse Mdr1a (NM_011076.3); expressed in transfected cells; host or cells: Abcb1KO-MDCKII (canine kidney, endogenous Abcb1 knocked out), transduced, single-cell clone; conditions: IC50 from ER
[13] = Inhibition of digoxin transport IC50±SD, hMDR1, probe 3H-digoxin 1 µM, 120 min
[14] = Inhibition of quinidine transport IC50±SD, hMDR1, probe 3H-quinidine 1 µM, 60 min
[15] = Inhibition of digoxin transport IC50±SD, rMDR1, probe 3H-digoxin 1 µM, 120 min
[16] = Inhibition of quinidine transport IC50±SD, rMDR1, probe 3H-quinidine 1 µM, 30 min
[17] = Inhibition of digoxin transport IC50±SD, mMDR1, probe 3H-digoxin 1 µM, 120 min
[18] = Inhibition of quinidine transport IC50±SD, mMDR1, probe 3H-quinidine 1 µM, 60 min
[19] = probe 3H-quinidine 1 µM, 60 min

T2 sequence (Q6PSM0 1-1272): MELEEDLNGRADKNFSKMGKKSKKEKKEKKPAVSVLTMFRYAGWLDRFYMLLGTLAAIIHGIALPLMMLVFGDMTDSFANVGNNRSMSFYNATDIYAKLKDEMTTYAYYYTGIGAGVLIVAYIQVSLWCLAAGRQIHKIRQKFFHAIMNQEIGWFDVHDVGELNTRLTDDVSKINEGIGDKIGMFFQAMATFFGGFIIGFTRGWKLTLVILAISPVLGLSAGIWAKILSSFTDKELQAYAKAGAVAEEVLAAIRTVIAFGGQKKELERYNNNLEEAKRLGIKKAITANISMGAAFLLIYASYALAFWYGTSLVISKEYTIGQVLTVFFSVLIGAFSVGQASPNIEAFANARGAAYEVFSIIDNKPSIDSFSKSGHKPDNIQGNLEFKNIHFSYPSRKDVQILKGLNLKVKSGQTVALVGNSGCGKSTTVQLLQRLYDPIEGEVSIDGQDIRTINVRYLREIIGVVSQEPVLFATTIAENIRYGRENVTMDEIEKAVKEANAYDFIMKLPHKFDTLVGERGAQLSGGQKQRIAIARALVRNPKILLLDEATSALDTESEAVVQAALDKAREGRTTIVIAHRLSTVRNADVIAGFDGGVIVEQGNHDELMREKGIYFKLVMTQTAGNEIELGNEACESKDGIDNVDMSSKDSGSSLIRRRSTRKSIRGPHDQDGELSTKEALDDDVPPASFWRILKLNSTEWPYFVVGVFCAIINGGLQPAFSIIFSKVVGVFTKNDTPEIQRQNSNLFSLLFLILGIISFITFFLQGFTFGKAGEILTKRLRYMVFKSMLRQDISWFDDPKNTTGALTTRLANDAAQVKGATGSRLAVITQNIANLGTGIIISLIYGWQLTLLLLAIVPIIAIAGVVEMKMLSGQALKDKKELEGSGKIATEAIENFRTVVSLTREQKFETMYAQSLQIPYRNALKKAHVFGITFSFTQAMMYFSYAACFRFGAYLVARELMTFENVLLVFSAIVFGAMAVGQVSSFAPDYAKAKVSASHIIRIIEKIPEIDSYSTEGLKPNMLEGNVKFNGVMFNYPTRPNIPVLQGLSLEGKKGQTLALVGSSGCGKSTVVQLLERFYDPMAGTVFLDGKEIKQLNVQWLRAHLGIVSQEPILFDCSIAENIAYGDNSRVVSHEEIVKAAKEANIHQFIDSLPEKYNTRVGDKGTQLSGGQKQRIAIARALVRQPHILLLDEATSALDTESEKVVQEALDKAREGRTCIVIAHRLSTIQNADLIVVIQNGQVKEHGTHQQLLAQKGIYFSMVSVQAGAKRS
T4 sequence (Q8HZQ6 1-1283): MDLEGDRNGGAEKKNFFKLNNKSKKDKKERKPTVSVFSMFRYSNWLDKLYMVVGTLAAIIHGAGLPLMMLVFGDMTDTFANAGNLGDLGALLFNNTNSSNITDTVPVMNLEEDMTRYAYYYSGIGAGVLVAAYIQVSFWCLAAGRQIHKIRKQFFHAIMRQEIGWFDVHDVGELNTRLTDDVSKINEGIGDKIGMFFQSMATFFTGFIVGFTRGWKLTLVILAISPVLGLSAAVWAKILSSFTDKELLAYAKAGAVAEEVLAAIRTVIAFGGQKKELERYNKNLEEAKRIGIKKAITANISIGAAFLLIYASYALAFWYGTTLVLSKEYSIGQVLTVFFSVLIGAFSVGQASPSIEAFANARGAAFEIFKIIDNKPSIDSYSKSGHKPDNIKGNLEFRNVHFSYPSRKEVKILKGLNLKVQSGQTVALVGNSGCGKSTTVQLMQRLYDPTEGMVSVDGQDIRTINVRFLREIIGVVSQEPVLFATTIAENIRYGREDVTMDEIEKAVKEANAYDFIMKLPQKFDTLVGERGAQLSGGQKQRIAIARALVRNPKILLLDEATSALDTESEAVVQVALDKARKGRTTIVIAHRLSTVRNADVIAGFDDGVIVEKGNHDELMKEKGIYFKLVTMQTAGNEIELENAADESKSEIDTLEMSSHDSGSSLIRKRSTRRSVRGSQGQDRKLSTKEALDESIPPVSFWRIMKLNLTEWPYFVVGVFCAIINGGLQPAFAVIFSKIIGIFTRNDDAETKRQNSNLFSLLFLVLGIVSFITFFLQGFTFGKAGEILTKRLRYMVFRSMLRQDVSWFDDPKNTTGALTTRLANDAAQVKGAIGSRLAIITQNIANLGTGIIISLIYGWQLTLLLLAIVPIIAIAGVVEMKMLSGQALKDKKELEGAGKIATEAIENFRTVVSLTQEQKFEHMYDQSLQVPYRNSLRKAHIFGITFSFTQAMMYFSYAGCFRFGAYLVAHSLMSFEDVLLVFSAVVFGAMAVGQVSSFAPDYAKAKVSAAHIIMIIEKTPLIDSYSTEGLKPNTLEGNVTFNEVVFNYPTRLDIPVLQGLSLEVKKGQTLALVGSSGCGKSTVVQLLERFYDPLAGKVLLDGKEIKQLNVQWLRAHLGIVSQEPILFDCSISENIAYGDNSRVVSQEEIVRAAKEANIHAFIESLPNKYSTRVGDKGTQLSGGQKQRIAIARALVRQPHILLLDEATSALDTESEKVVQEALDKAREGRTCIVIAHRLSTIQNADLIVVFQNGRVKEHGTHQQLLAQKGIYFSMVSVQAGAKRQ
T1 sequence (P08183 whole entry): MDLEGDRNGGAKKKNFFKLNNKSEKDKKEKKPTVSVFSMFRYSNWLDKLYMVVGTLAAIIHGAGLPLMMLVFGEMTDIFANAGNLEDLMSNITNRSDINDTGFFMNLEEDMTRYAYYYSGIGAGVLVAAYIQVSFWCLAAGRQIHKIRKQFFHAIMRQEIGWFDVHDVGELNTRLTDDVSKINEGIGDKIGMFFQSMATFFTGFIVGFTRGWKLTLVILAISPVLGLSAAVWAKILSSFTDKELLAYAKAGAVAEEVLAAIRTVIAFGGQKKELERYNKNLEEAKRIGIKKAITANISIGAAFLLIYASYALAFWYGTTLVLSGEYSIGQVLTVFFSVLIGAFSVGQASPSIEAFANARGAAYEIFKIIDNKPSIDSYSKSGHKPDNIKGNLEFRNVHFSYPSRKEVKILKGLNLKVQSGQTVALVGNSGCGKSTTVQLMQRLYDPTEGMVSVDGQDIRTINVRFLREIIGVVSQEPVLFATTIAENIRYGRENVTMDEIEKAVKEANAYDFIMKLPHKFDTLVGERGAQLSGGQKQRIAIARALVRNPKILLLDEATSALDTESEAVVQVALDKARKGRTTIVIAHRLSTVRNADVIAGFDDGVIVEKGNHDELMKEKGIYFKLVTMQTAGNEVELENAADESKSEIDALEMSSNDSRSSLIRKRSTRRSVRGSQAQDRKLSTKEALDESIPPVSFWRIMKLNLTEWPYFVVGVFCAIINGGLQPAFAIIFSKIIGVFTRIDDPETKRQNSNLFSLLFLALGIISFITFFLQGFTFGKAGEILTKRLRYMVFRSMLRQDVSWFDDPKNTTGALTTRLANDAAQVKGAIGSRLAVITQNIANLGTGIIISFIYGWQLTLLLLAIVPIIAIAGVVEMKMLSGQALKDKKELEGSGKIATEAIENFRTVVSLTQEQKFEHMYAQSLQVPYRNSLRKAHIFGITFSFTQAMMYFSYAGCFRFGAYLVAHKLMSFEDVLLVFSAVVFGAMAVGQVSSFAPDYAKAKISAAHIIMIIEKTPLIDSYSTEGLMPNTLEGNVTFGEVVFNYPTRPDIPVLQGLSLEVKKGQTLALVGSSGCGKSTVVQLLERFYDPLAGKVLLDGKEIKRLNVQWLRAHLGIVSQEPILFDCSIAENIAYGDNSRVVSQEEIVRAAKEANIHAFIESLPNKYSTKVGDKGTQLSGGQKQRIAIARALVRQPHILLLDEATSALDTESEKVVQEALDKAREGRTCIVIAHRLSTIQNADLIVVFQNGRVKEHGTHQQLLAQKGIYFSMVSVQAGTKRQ
T3 sequence (P21447 whole entry): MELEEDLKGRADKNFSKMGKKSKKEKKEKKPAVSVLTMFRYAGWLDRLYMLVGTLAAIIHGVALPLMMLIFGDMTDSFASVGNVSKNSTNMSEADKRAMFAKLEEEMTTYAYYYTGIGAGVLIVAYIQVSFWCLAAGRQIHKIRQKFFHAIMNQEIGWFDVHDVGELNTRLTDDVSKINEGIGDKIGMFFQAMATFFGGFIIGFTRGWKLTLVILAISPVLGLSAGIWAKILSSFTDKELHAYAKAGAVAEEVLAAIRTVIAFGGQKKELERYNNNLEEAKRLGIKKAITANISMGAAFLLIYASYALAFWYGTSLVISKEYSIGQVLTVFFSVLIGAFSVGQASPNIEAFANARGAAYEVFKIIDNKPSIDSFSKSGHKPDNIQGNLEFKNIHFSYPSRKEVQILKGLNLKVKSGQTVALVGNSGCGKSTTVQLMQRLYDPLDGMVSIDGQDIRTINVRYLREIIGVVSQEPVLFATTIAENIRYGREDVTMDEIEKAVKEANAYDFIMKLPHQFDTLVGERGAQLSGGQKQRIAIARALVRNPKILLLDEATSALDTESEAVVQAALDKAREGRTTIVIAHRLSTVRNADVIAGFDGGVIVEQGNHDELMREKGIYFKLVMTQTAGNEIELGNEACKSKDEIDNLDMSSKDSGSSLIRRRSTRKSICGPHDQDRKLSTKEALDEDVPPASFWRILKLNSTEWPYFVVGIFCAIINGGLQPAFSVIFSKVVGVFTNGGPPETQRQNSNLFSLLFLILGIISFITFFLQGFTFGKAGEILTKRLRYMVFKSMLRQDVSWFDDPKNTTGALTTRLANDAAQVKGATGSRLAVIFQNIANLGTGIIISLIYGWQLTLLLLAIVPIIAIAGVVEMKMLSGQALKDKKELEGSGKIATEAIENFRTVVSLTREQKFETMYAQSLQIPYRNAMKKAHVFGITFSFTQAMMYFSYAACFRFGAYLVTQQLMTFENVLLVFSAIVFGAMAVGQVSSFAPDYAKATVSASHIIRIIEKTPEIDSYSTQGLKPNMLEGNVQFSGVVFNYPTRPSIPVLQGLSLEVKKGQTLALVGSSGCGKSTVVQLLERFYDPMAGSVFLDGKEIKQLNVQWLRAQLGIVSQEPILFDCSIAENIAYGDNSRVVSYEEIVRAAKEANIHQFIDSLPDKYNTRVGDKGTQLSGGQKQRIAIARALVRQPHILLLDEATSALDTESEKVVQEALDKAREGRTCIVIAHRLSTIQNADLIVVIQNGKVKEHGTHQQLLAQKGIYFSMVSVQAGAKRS

Structure (SMILES): N=C(N)N/N=C/c1c(Cl)cccc1Cl [Guanabenz]
- efflux ratio at 120 min, 1 µM [1]: 0.93 ± 0.15
- efflux ratio at 120 min, 1 µM [2]: 0.82 ± 0.1
- efflux ratio at 120 min, 1 µM [3]: 0.85 ± 0.13
- efflux ratio at 120 min, 1 µM [4]: 1.08 ± 0.09
- efflux ratio at 120 min, 1 µM [5]: 0.84 ± 0.1
- efflux ratio at 120 min, 1 µM [6]: 3.35 ± 1.17
- CNS penetration classification based on total ER (hMDR1 + hBCRP) [7]: false positives

Structure (SMILES): CN(C)C(=O)C(CCN1CCC(O)(c2ccc(Cl)cc2)CC1)(c1ccccc1)c1ccccc1 [Loperamide]
- efflux ratio at 120 min, 1 µM [1]: 0.49 ± 0.03
- efflux ratio at 120 min, 1 µM [2]: 48.7 ± 3.51
- efflux ratio at 120 min, 1 µM [3]: 10.5 ± 2.34
- efflux ratio at 120 min, 1 µM [4]: 16 ± 2.75
- efflux ratio at 120 min, 1 µM [5]: 6.38 ± 0.55
- efflux ratio at 120 min, 1 µM [6]: 2 ± 0.23
- IC50 [8]: 6.3 ± 2.27 µM
- IC50 [9, 13]: 38.3 ± 4.59 µM
- IC50 [9, 14]: 4.75 ± 0.32 µM
- IC50 [10]: 1.36 ± 0.34 µM
- IC50 [11, 15]: 11.1 ± 4.28 µM
- IC50 [11, 16]: 1.01 ± 0.49 µM
- IC50 [12, 17]: 6.5 ± 1.1 µM
- IC50 [12, 18]: 0.96 ± 0.33 µM

Structure (SMILES): OC[C@@H](O)[C@@H](O)[C@H](O)[C@H](O)CO [Mannitol]
- efflux ratio at 120 min, 1 µM [1]: 0.96 ± 0.12
- efflux ratio at 120 min, 1 µM [2]: 0.87 ± 0.14
- efflux ratio at 120 min, 1 µM [3]: 0.89 ± 0.12
- efflux ratio at 120 min, 1 µM [4]: 1.04 ± 0.16
- efflux ratio at 120 min, 1 µM [5]: 0.76 ± 0.1
- efflux ratio at 120 min, 1 µM [6]: 0.73 ± 0.2
- CNS penetration classification based on total ER (hMDR1 + hBCRP) [7]: false negatives

Structure (SMILES): COCC(=O)O[C@]1(CCN(C)CCCc2nc3ccccc3[nH]2)CCc2cc(F)ccc2[C@@H]1C(C)C [Mibefradil]
- IC50 [8]: 4.84 ± 1.82 µM
- IC50 [10]: 3.61 ± 2.04 µM
- IC50 [11, 15]: 7.42 ± 2.76 µM
- IC50 [11, 16]: 1.11 ± 0.21 µM
- IC50 [12, 17]: 7.15 ± 4.58 µM

Structure (SMILES): CC(C)(C)NCC(O)COc1ccc(NC(=O)NC2CCCCC2)cc1 (stereo not shown) [talinolol]
- Inhibition of digoxin transport IC50±SD, hMDR1 ([9]; probe 3H-digoxin 1 µM, 120 min): no inhibition
- Inhibition of quinidine transport IC50±SD, hMDR1 [9, 19]: no inhibition
- Inhibition of quinidine transport IC50±SD, cyMDR1 ([10]; probe 3H-quinidine 0.1 µM): no inhibition
- Inhibition of digoxin transport IC50±SD, rMDR1 ([11]; probe 3H-digoxin 1 µM, 120 min): no inhibition
- Inhibition of quinidine transport IC50±SD, rMDR1 ([11]; probe 3H-quinidine 1 µM, 30 min): no inhibition
- Inhibition of digoxin transport IC50±SD, mMDR1 ([12]; probe 3H-digoxin 1 µM, 120 min): no inhibition
- Inhibition of quinidine transport IC50±SD, mMDR1 [12, 19]: no inhibition

Structure (SMILES): CC(C)(C)NC(=O)[C@@H]1C[C@@H]2CCCC[C@@H]2CN1C[C@@H](O)[C@H](Cc1ccccc1)NC(=O)[C@H](CC(N)=O)NC(=O)c1ccc2ccccc2n1 [Saquinavir]
- IC50 [8]: 12.3 ± 5.44 µM
- IC50 [10]: 20.7 ± 7.67 µM
- IC50 [11, 15]: 25 ± 11.4 µM
- IC50 [11, 16]: 12.3 ± 5.02 µM

Structure (SMILES): COC(=O)C1=C(C)NC(C)=C(C(=O)OC(C)C)C1c1cccc2nonc12 (stereo not shown) [Isradipine]
- IC50 [8]: 10.6 ± 4.73 µM
- IC50 [9, 13]: > 50 µM
- IC50 [9, 14]: 2.07 ± 1.28 µM
- IC50 [10]: 19.3 ± 5.76 µM
- IC50 [11, 15]: 15.2 ± 2.84 µM
- IC50 [11, 16]: 13.6 ± 9.37 µM
- IC50 [12, 17]: 5.28 ± 2.94 µM
- IC50 [12, 18]: 19.3 ± 3.75 µM
